The target in experiment [1] is T1, human recombinant HDAC1 (Homo sapiens, UniProt Q13547).
T1 construct: purchased Enzo Life Science, Inc. BML-SE456
Kind of experiment: HDAC1 enzyme activity inhibition (HDAC Fluorimetric Drug Discovery Kit). The experiment is classed as biochemical. Conditions: read-out: HDAC1. The gist of the method: (§1)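 Fluorimetric deacetylase read-out: after 30 min with Developer II following a 60 min, 30° C reaction of recombinant enzyme ([…]) with 10 μM substrate, across five-fold serial compound dilutions.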

Experiment [2] concerns the target T2, human recombinant HDAC6 (Homo sapiens, UniProt Q9UBN7).
T2 construct: purchased Calbiochem Inc. 382180
T2 sequence (Q9UBN7 1-1215): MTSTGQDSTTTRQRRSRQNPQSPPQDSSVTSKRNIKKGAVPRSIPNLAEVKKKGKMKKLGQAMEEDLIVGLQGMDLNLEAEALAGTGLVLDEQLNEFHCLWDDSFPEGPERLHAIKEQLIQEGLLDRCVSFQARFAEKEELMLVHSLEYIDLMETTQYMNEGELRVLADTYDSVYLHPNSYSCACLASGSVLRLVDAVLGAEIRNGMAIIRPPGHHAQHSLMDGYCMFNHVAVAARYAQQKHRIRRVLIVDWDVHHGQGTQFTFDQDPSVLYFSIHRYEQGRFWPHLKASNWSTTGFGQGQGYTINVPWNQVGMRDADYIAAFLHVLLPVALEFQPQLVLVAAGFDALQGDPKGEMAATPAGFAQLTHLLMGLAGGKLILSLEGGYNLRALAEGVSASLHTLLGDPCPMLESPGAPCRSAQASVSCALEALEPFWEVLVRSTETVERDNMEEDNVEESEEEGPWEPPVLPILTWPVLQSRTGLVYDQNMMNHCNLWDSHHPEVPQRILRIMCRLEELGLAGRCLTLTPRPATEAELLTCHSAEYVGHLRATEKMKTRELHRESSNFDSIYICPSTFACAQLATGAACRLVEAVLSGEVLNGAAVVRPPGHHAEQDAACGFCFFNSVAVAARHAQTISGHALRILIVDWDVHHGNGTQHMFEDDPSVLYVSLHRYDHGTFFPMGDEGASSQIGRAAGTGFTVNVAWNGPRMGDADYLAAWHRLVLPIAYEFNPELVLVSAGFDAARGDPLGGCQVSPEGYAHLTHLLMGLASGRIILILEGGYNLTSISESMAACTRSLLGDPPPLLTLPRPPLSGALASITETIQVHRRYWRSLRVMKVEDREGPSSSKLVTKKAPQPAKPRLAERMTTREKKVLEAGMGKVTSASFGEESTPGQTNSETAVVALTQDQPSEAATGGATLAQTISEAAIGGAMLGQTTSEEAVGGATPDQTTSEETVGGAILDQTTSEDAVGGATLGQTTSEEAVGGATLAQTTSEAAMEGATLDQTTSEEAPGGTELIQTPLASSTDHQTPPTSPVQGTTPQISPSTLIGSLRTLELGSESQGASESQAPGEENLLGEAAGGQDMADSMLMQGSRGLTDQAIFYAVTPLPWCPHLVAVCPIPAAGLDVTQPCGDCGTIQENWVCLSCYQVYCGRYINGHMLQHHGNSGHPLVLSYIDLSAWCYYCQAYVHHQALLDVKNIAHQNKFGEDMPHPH
Kind of experiment: HDAC6 enzyme activity inhibition (HDAC Fluorimetric Drug Discovery Kit). The experiment is classed as biochemical. The gist of the method: as §1

The test system of experiment [3] is hippocampal neurons from a Sprague-Dawley (SD) rat fetus. Kind of experiment: Effect of HDAC6-specific inhibitor on axonal transport of mitochondria in amyloid-beta treated neurons. The experiment is classed as cell-based. Conditions: transport velocity of mitochondria in neuronal axon after normalization; vehicle = 100%, amyloid beta treatment group = 0%; compound treatment for three hours. In short, it runs like this:
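Rat E17-18 hippocampal neurons exposed to amyloid-beta fragments […]; after 24 h (day 8 in vitro) compound added for 3 h, mitochondria stained with MitoTracker Red CMXRos. Confocal imaging every 1 s for 1 min gave per-mitochondrion velocity, normalized vehicle = 100%, amyloid-beta = 0%.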

Setting [4] is: human recombinant HDAC1, IC50 calculated with GraphPad Prism.
[5] abbreviates: human recombinant HDAC6, IC50 calculated with GraphPad Prism.
The mark [6] stands for this setting: human recombinant HDAC1, Fluor de Lys substrate, 30° C. 60 minutes.
Where [7] appears, read: human recombinant HDAC6, same protocol as HDAC1.

Read-outs that look alike come from different tables or passages of the source.

T1 sequence (Q13547 whole entry): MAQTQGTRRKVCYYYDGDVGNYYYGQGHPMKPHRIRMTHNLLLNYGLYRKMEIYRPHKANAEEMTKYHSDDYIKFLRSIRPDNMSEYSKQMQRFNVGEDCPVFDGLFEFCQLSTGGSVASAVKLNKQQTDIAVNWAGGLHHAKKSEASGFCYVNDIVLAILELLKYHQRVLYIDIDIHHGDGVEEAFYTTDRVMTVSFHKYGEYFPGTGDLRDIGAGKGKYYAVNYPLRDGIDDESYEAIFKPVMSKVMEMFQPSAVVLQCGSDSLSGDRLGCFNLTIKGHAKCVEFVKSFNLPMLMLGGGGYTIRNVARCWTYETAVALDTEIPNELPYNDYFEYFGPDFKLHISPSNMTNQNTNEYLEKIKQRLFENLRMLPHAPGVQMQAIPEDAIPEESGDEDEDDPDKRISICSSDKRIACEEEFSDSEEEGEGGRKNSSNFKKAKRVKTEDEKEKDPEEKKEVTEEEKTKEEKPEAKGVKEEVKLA

`CC(C)N1CCC(c2cccc(-c3cn(Cc4ccc(-c5nnc(C(F)F)o5)cn4)nn3)c2)CC1` [Compound 4012, 2-(difluoromethyl)-5-(6-((4-(3-(1-isopropylpiperidin-4-yl)phenyl)-1H-1,2,3-triazol-1-yl)methyl)pyridin-3-yl)-1,3,4-oxadiazole]: the IC50 was > 50000 nM in experiment [1] (setting [4]) and 21.2 nM in experiment [2] (setting [5]). The “HDAC6 selectivity (fold)” value in experiment [2] (HDAC1 IC50 / HDAC6 IC50) amounted to 2358 fold. Also, the “Velocity distribution (%)” value in experiment [3] is given as “*** (***, >100%)”.
In the case of `FC(F)c1nnc(-c2ccc(Cn3cc(-c4ccnc5[nH]ccc45)nn3)nc2)o1` [Compound 3840, 2-(6-((4-(1H-pyrrolo[2,3-b]pyridin-4-yl)-1H-1,2,3-triazol-1-yl)methyl)pyridin-3-yl)-5-(difluoromethyl)-1,3,4-oxadiazole], the IC50 in experiment [1] (setting [4]) is > 50000 nM; in experiment [2] (setting [5]), 8.8 nM. Also, in experiment [2] (HDAC1 IC50 / HDAC6 IC50), the “HDAC6 selectivity (fold)” value worked out at 5681 fold. In addition, in experiment [3], the “Velocity distribution (%)” value was “** (**, 50%˜100%)”.
In the case of `CC(C)N1CCN(c2cccc(-c3cn(Cc4ccc(-c5nnc(C(F)F)o5)cn4)nn3)c2)CC1` [Compound 4070, 2-(difluoromethyl)-5-(6-((4-(3-(4-isopropylpiperazin-1-yl)phenyl)-1H-1,2,3-triazol-1-yl)methyl)pyridin-3-yl)-1,3,4-oxadiazole], the IC50 in experiment [1] (setting [4]) was > 50000 nM; in experiment [2] (setting [5]), 38.5 nM. Moreover, in experiment [2] (HDAC1 IC50 / HDAC6 IC50), the “HDAC6 selectivity (fold)” value turned out to be 1298 fold. In addition, the “Velocity distribution (%)” value in experiment [3] is reported as “** (**, 50%˜100%)”.
Turning to `CN1CCN(c2cccc(-c3cn(Cc4ccc(-c5nnc(C(F)F)o5)cc4)nn3)c2)CC1` [Compound 4336, 2-(difluoromethyl)-5-(4-((4-(3-(4-methylpiperazin-1-yl)phenyl)-1H-1,2,3-triazol-1-yl)methyl)phenyl)-1,3,4-oxadiazole], the IC50 in experiment [1] (setting [4]) was > 50000 nM; in experiment [2] (setting [5]), 32.4 nM. Further, in experiment [2] (HDAC1 IC50 / HDAC6 IC50), the “HDAC6 selectivity (fold)” value came out at 1543 fold. Further, the “Velocity distribution (%)” value in experiment [3] was “*** (***, >100%)”.
Take `CN1CCN(Cc2c[nH]c3cc(-c4cn(Cc5ccc(-c6nnc(C(F)F)o6)cn5)nn4)ccc23)CC1` [Compound 3986, 2-(difluoromethyl)-5-(6-((4-(3-((4-methylpiperazin-1-yl)methyl)-1H-indol-6-yl)-1H-1,2,3-triazol-1-yl)methyl)pyridin-3-yl)-1,3,4-oxadiazole]: the IC50 in experiment [1] (setting [4]) is > 50000 nM; in experiment [2] (setting [5]), 7.4 nM. Besides, the “HDAC6 selectivity (fold)” value in experiment [2] (HDAC1 IC50 / HDAC6 IC50) came out at 6756 fold. Besides, the “Velocity distribution (%)” value in experiment [3] is listed as “*** (***, >100%)”.
Turning to `Cc1ccc(-c2cn(Cc3ccc(-c4nnc(C(F)F)o4)cn3)nn2)cc1` [Compound 3738, 2-(difluoromethyl)-5-(6-((4-(p-tolyl)-1H-1,2,3-triazol-1-yl)methyl)pyridin-3-yl)-1,3,4-oxadiazole], the IC50 is > 50000 nM in experiment [1] (setting [4]) and 44 nM in experiment [2] (setting [5]). Besides, the “HDAC6 selectivity (fold)” value in experiment [2] (HDAC1 IC50 / HDAC6 IC50) was 1136 fold. For the same compound, the “Velocity distribution (%)” value in experiment [3] is reported as “*** (***, >100%)”.
Consider `Cc1cccc(-c2cn(Cc3ccc(-c4nnc(C(F)F)o4)cn3)nn2)c1` [Compound 3856, 2-(difluoromethyl)-5-(6-((4-(m-tolyl)-1H-1,2,3-triazol-1-yl)methyl)pyridin-3-yl)-1,3,4-oxadiazole], for which the IC50 is > 50000 nM in experiment [1] (setting [4]) and 33.2 nM in experiment [2] (setting [5]). In addition, in experiment [2] (HDAC1 IC50 / HDAC6 IC50), the “HDAC6 selectivity (fold)” value is 1506 fold. Besides, in experiment [3], the “Velocity distribution (%)” value was “*** (***, >100%)”.
For `FC(F)c1nnc(-c2ccc(Cn3cc(-c4cccc5[nH]ncc45)nn3)nc2)o1` [Compound 4346, 2-(6-((4-(1H-indazol-4-yl)-1H-1,2,3-triazol-1-yl)methyl)pyridin-3-yl)-5-(difluoromethyl)-1,3,4-oxadiazole], the results for the IC50 in experiment [1] (setting [4]) and in experiment [2] (setting [5]) were > 50000 nM and 5.5 nM, respectively. Also, the “HDAC6 selectivity (fold)” value in experiment [2] (HDAC1 IC50 / HDAC6 IC50) was found to be 9090 fold. Besides, the “Velocity distribution (%)” value in experiment [3] was “*** (***, >100%)”.
Regarding `CN(C)Cc1ccc(-c2cn(Cc3ncc(-c4nnc(C(F)F)o4)cc3F)nn2)cc1` [Compound 18308, 1-(4-(1-((5-(5-(difluoromethyl)-1,3,4-oxadiazol-2-yl)-3-fluoropyridin-2-yl)methyl)-1H-1,2,3-triazol-4-yl)phenyl)-N,N-dimethylmethanamine], the figures for the IC50 in experiment [1] (setting [6]) and in experiment [2] (setting [7]) were > 50000 nM and 64.9 nM, respectively. In addition, the “HDAC6 selectivity (fold)” value in experiment [2] (HDAC6 over HDAC1) was determined as 770 fold. Also, the “Velocity distribution (%)” value in experiment [3] is “*** (***, >100%)”.
As for `FC(F)c1nnc(-c2ccc(Cn3nnc(-c4cccs4)n3)nc2)o1` [Compound 4232, 2-(difluoromethyl)-5-(6-((5-(thiophen-2-yl)-2H-tetrazol-2-yl)methyl)pyridin-3-yl)-1,3,4-oxadiazole], the IC50 is > 50000 nM in experiment [1] (setting [4]) and 22.4 nM in experiment [2] (setting [5]). For the same compound, the “HDAC6 selectivity (fold)” value in experiment [2] (HDAC1 IC50 / HDAC6 IC50) is reported as 2232 fold. For the same compound, the “Velocity distribution (%)” value in experiment [3] was “** (**, 50%˜100%)”.
Take `CC(C)N1CCC(Nc2cccc(-c3cn(Cc4ccc(-c5nnc(C(F)F)o5)cc4F)nn3)c2F)CC1` [Compound 4432, N-(3-(1-(4-(5-(difluoromethyl)-1,3,4-oxadiazol-2-yl)-2-fluorobenzyl)-1H-1,2,3-triazol-4-yl)-2-fluorophenyl)-1-isopropylpiperidin-4-amine]: the IC50 in experiment [1] (setting [4]) was > 50000 nM; in experiment [2] (setting [5]), 20.6 nM. The “HDAC6 selectivity (fold)” value in experiment [2] (HDAC1 IC50 / HDAC6 IC50) came out at 2427 fold. Further, the “Velocity distribution (%)” value in experiment [3] is recorded as “*** (***, >100%)”.
With `Fc1cc(-c2nnc(C(F)F)o2)ccc1Cn1cc(-c2ccc3cn[nH]c3c2)nn1` [Compound 4342, 2-(4-((4-(1H-indazol-6-yl)-1H-1,2,3-triazol-1-yl)methyl)-3-fluorophenyl)-5-(difluoromethyl)-1,3,4-oxadiazole], the figures for the IC50 in experiment [1] (setting [4]) and in experiment [2] (setting [5]) were > 50000 nM and 34.4 nM, respectively. Moreover, the “HDAC6 selectivity (fold)” value in experiment [2] (HDAC1 IC50 / HDAC6 IC50) is recorded as 1453 fold. The “Velocity distribution (%)” value in experiment [3] is on record as “* (*, 0%˜50%)”.
On to `FC(F)c1nnc(-c2ccc(Cn3cc(-c4ccccc4)nn3)nc2)o1` [Compound 3736, 2-(difluoromethyl)-5-(6-((4-phenyl-1H-1,2,3-triazol-1-yl)methyl)pyridin-3-yl)-1,3,4-oxadiazole], for which the results for the IC50 in experiment [1] (setting [4]) and in experiment [2] (setting [5]) were > 50000 nM and 22.2 nM, respectively. For the same compound, the “HDAC6 selectivity (fold)” value in experiment [2] (HDAC1 IC50 / HDAC6 IC50) is on record as 2252 fold. Further, in experiment [3], the “Velocity distribution (%)” value is given as “*** (***, >100%)”.
In the case of `Fc1cc(-c2nnc(C(F)F)o2)ccc1Cn1cc(-c2ccc(CN3CC[C@H](F)C3)cn2)nn1` [Compound 18185, (S)-2-(difluoromethyl)-5-(3-fluoro-4-((4-(5-((3-fluoropyrrolidin-1-yl)methyl)pyridin-2-yl)-1H-1,2,3-triazol-1-yl)methyl)phenyl)-1,3,4-oxadiazole], the IC50 in experiment [1] (setting [6]) was > 50000 nM; in experiment [2] (setting [7]), 62 nM. For the same compound, the “HDAC6 selectivity (fold)” value in experiment [2] (HDAC6 over HDAC1) turned out to be 806 fold. In addition, in experiment [3], the “Velocity distribution (%)” value was “*** (***, >100%)”.
For the compound `Fc1cc(-c2nnc(C(F)F)o2)ccc1Cn1cc(-c2ccc(CN3CCCC3)cn2)nn1` [Compound 17533, 2-(difluoromethyl)-5-(3-fluoro-4-((4-(5-(pyrrolidin-1-ylmethyl)pyridin-2-yl)-1H-1,2,3-triazol-1-yl)methyl)phenyl)-1,3,4-oxadiazole], the IC50 in experiment [1] (setting [6]) was > 50000 nM; in experiment [2] (setting [7]), 22 nM. In experiment [2] (HDAC6 over HDAC1), the “HDAC6 selectivity (fold)” value is 2272 fold. The “Velocity distribution (%)” value in experiment [3] is “* (*, 0%˜50%)”.

The values above are taken from patent US20230257372A1 (CHONG KUN DANG PHARMACEUTICAL CORP., priority 2020, published 2023).
